Non-standard residues stand in square brackets, D forms with d. Residues, ends and D or L forms follow the SMILES beside them.
Legend:
N2a-Tau^RDΔK cells [1] = experiment: MTT cytotoxicity of the peptides alone; type: cell-based; settings: 25, 50, 100, 250 μM peptide, 24 h, n = 3
Method: Cell viability was analyzed in accordance with the manufacturer’s protocol (Roche Diagnostics, Mannheim, Germany; cell proliferation kit II (MTT)). This assay is based on the cleavage of the yellow tetrazolium salt MTT into purple formazan dye by metabolic active cells. The color changes only in viable cells and can be directly quantified using a scanning multiwell spectrophotometer. In all experiments, the cells were grown as described previously. The cells (25,000 cells/well or 80% confluence) were plated on poly D-lysine-coated 96-well plates (Greiner Bio-One GmbH, Frickenhausen, Germany) for stronger attachment from overnight to 24 h at 37 °C. Fibrillized Tau^RDΔK was generated by incubating 200 μM Tau^RDΔK in BES buffer at 37 °C for 24 h in the presence of 2 mM D-peptides (Tau^RDΔK:peptide = 1:10). Successful fibrillization was verified using ThS (5 μM Tau^RDΔK, 10 μM ThS) measurement. The aggregated Tau^RDΔK (10 μM final concentration), Tau^RDΔK (10 μM) + peptide (100 μM) samples (ISAD1 and ISAD1rev), buffer only (negative control, set to 100% cell viability), and TritonX-100 (2%, cytotoxic agent, positive control) were incubated on N2a-Tau^RDΔK cells (100 μl solution) for another 24 h. The cell viability was measured in accordance with the manufacturer’s protocol.
A MTT-based cytotoxicity assay in the presence of ISAD1 and ISAD1rev peptides. […]

[2] = test system: N2a cells expressing Tau^RDΔK; experiment: Uptake of FAM-labeled D-peptides by confocal microscopy; type: cell-based; settings: 25 μM FAM-labeled peptide, 24 h, fixed cells
Method: In order to become potentially suitable for therapeutic development, the D-peptides should be internalized by neurons. To test this, 25 μM FAM-labeled ISAD1 or its inversed form was added to cells that express pro-aggregant mutant Tau^RDΔK for 24 h followed by cell fixation.
Fig. 7 Uptake of fluorescence-labeled D-peptides analyzed by confocal microscopy. 25 μM FAM-labeled peptides (ISAD1 and ISArev) were incubated with N2a cells expressing Tau^RDΔK for 24 h. The uptake of D-peptides was analyzed by confocal microscopy. As shown in the representative images, the peptides are mainly localized in the cytoplasm (A1, B1 Draq5 shown as red; A2 ISAD1-FAM, B2 ISAD1rev-FAM; A3, B3 merged images)

N2a-Tau^RDΔK cells [3] = experiment: LDH release with the peptides alone; type: cell-based; settings: 25, 50, 100, 250 μM peptide, 24 h, n = 3
Method: N2a cells expressing Tau^RDΔK were plated on poly D-lysine-coated 96-well plates with a density of 25,000 cells/well. At 70 to 80% confluence, the cells were treated for 24 h with various concentrations of D-peptides (25, 50, 100, and 250 μM) or Tau^RDΔK (10 μM final concentration) in the presence of ISAD1 and ISAD1rev (100 μM final concentration). The ability of D-peptides to neutralize the toxicity of Tau^RDΔK oligomers/fibrils was investigated by measuring the amount of released LDH (Roche Diagnostics, Mannheim, Germany). Therefore, 50 μL of each well was transferred to a fresh 96-well plate and 50 μL of reagent was added followed by a 30-min incubation period at RT. Finally, 50 μL of stop solution (1 N HCl) was added and absorbance was recorded at 492 nm (TECAN spectrofluorometer, Männedorf, Switzerland). Absorbance values were corrected by background values and the percentage of LDH release was calculated.

Tau^FL [4] = biological target: T1, Tau^FL (Homo sapiens, UniProt P10636); experiment: ELISA of FAM-labeled peptide binding to Tau^FL; settings: FAM-labelled peptide 0.1 – 200 µM, Tau^FL 5 µg/ml, n = 3
T1 construct: Tau^FL Full-length human Tau (441 AA); made in house
T1 sequence (P10636 1-441 isoform P10636-8): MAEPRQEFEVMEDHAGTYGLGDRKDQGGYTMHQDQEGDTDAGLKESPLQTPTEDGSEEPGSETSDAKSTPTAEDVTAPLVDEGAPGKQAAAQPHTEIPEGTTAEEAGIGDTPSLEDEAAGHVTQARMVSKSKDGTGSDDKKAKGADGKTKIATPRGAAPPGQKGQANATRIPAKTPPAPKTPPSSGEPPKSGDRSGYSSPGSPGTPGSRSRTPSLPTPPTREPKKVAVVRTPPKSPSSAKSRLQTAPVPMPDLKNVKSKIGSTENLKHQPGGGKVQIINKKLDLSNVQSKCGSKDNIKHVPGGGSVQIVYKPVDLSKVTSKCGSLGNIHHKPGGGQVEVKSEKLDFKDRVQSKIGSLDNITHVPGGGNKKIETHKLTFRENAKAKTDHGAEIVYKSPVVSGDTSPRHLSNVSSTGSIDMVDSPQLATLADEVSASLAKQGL
Method: A 96-well microtiter plate (Greiner Bio-One GmbH, Frickenhausen, Germany) was coated with 5 μg/ml Tau^FL or fibrils in coating buffer for incubation overnight at 4 °C. For investigation of the binding properties to the hexapeptide, 5 μM PHF6 was coated overnight. After three times washing with 300 μl phosphate-buffered saline with Tween20 (PBST: PBS with 0.1 % [v/v] Tween20), the plate was blocked with 3 % [w/v] BSA in PBS for 1 h at RT, followed by further washing steps. […] The plate was washed three times with PBST before 100 μl sheep anti-fluorescein isothiocyanate (FITC) HRP-conjugate (1:5000 dilution in PBST; AbD Serotec, Puchheim, Germany) was added and incubated for 1 h at RT with gentle agitation. Again, the plate was washed for three times, followed by addition of the TMB substrate. The reaction was stopped with 20 % [v/v] H2SO4 and absorbance was measured at 450 nm.

Tau^FL [5] = biological target: T1, Tau^FL; experiment: Fibrillization of Tau^FL monitored by ThT assay; type: biochemical; parameters: key to Inhibition of Tau^FL aggregation: (+/-) indicates comparably low inhibition of Tau^FL fibrillization; (-) indicates that the peptide showed no effect on fibril formation; settings: L-peptides
Method: Tau aggregation assays were performed under reducing conditions. Before the addition of heparin and peptides, a final concentration of 1 mM dithiothreitol (DTT) was added to the Tau protein solution and heated at 95 °C for 10 min. […] Final concentration of 10 μM ThT was used for monitoring fibrillization. In case of the two hexapeptides, 5 μM PHF6 and 5 μM PHF6*, respectively, without addition of the aggregation inducer heparin (16000 Da) were used for monitoring the fibrillization process. The assays were performed with 50-μl sample volume per well in a 96-well half area microtiter plate (Greiner Bio-One GmbH, Frickenhausen, Germany). The fibrillization of Tau^FL was monitored by ThT, and the relative fluorescence intensity of ThT was read out at 440 excitation/521 emission nm in a BMG microplate reader (BMG Labtech, Ortenberg, Germany).

Tau = settings: PHF6 addressing peptide; read-out: Inhibition of fibrillization of Tau (compared with the IC50 of ISAD1); cited from earlier work
Method: Aggregation of Tau is the primary hallmark for the disease pathology in AD and other tauopathies. A significant inhibition of the aggregation by therapeutic molecules is considered beneficial. Our novel peptide ISAD1 inhibited the fibrillization of Tau^FL and pro-aggregant Tau^RDΔK (IC50 of ~3 μM) in concentrations which are typical for peptide inhibitors.

**Q.** Which results are given for `CC(C)C[C@@H](NC(=O)[C@@H](CCCCN)NC(=O)[C@@H](Cc1ccccc1)NC(=O)[C@H](NC(=O)[C@H](N)CO)C(C)C)C(=O)N[C@H](CO)C(=O)N[C@H](CC(C)C)C(=O)N[C@@H](C(=O)N[C@H](CC(=O)O)C(=O)N[C@H](C)C(=O)N[C@H](C)C(=O)N[C@H](CO)C(=O)O)[C@H](C)O` [ISAD1] (H-[dS][dV][dF][dK][dL][dS][dL][dT][dD][dA][dA][dS]-OH)?
**A.** Cytotoxicity, MTT (N2a-Tau^RDΔK cells [1]): do not induce toxic effects; Intracellular localisation [2]: accumulated in the cytosol but were excluded from the nucleus; Uptake by cells [2]: almost all cells took up the D-peptides; Cytotoxicity, LDH release (N2a-Tau^RDΔK cells [3]): do not induce toxic effects

**Q.** With “SASVTSKFDALL [ISAL1sam, scrambled L-amino acid variant of ISAL1, control peptide]” as the compound, how does the “Binding to Tau^FL in ELISA, in words” value (Tau^FL [4]) read?
**A.** Its value is “no significant binding”.

**Q.** And the “Inhibition of Tau^FL fibrillization, in words” value (Tau^FL [5]; ThT assay)?
**A.** The value was “did not inhibit”.

**Q.** What about the “Inhibition of Tau^FL aggregation” value (Tau^FL [5]; ThT fibrillization assay) of the same compound?
**A.** Its value is “-”.

**Q.** With TLKIVW as the compound, how does the IC50 (Tau) read?
**A.** The IC50 was 54.1 µM.
